Source: publication PMC12434519
Like-named read-outs stand apart in the source and are kept apart here.

Tests used:
human RNMT-RAM complex = human RNMT-RAM complex (Homo sapiens, UniProt O43148); experiment: Biochemical activity assay for the human RNMT-RAM complex (MTase-Glo); conditions: for Emax: read-out: hRNMT-RAM inhibition: Maximum response; for hRNMT-RAM inhibition: Hill slope: fit of concentration-response curve
ZIKV NS5 = ZIKV NS5 (Zika virus, UniProt Q32ZE1); experiment: Biochemical activity assay for ZIKV NS5 MTase (MTase-Glo); conditions: for Emax: 0.75 h, read-out: ZIKV NS5 inhibition: Maximum measured; for ZIKV NS5 inhibition: Hill slope: fit of concentration-response curve
Method: final concentration, lab stock) during dialysis at 4 °C overnight against a buffer containing 50 mM Tris-HCl, pH 7.5, 20 mM imidazole, 500 mM NaCl, and 1 mM dithiothreitol (DTT). To remove the His6-SUMO tag, the protein sample was mixed with cOmplete His-Tag purification resin (Roche), incubated for 2 h at 4 °C, and loaded onto a gravity flow column. Since the His6-SUMO tag bound to the column material, the flow-through was collected containing untagged target protein. The target protein was further purified by a Superdex200 10/300 gel filtration column (GE Healthcare) in buffer (20 mM Tris-HCl, pH 7.5, 500 mM NaCl, 1 mM DTT). Fractions were analyzed by SDS-PAGE and Coomassie staining. Protein-containing fractions were pooled, flash-frozen in liquid nitrogen, and stored at -80 °C. […]
in 1X NSP14 reaction buffer (50 mM Tris-HCl, pH 7.5, 6 mM KCl, 1.25 mM MgCl2, 1 mM DTT, and 0.01% Tween-20) in a total reaction volume of 16 µl in absence or presence of increasing inhibitor compound concentrations for 45 min at 37 °C. SAH production was monitored using the bioluminescence-based MTase-Glo™ Methyltransferase Assay kit (Promega) following manufacturer’s instructions. The luminescence signal of each reaction was recorded in relative light units (RLUs) using a Synergy Neo plate reader (BioTek, Winooski, VT). […] IC50 values (mean from at least 3 independent experiments) were calculated using the GraphPad Prism software (Version 10.1.1) and a four-parameter logistic regression.
Biochemical activity assays for the human RNMT-RAM complex and ZIKV NS5 MTases Activity assays were performed in 1x NSP14 reaction buffer. For hRNMT-RAM, we used 15 nM enzyme, 2.5 µM GpppG and 2 µM SAM. For ZIKV NS5, we used 25 nM enzyme, 3 µM […]
Gppp[…]3, and 5 µM SAM. The enzymatic reaction was initiated with the addition of the enzyme in assay buffer and incubated at RT or 37 °C for 45 min, respectively. SAH was detected using the MTase-Glo™ assay.
Differential scanning fluorimetry (DSF)

[1] = SAH counterscreen inhibition (counterscreen of the MTase-Glo luminescence readout); conditions: for SAH counterscreen inhibition: Maximum response / IC50: LUM % inhibition; for SAH counterscreen inhibition: Hill slope: fit of concentration-response curve; for IC50: read-out: SAH counterscreen inhibition: IC50
SARS-CoV-2 [2] = test system: SARS-CoV-2; design: method as in PMID 39663451; conditions: transgenic mouse model; efficacy comparable to nirmatrelvir; cited from earlier work
SARS-CoV-2 [3] = experiment: SARS-CoV-2 viral infection assay in Huh-7.5 cells; type: cell-based, SARS-CoV-2 (strain: USA-WA1/2020); conditions: n = 3
Huh-7.5 cells = experiment: Cytotoxicity in Huh-7.5 cells; type: cell-based, Homo sapiens; conditions: at ≤ 3 μM compound
[4] = Cytotoxicity in Huh-7.5 cells; type: cell-based, Homo sapiens; conditions: human, n = 3
[5] = LUM % inhibition, read-out: hRNMT-RAM inhibition: IC50
[6] = selectivity assay, read-out: ZIKV NS5 inhibition IC50

ZIKV NS5, sequence (Q32ZE1 2517-2781): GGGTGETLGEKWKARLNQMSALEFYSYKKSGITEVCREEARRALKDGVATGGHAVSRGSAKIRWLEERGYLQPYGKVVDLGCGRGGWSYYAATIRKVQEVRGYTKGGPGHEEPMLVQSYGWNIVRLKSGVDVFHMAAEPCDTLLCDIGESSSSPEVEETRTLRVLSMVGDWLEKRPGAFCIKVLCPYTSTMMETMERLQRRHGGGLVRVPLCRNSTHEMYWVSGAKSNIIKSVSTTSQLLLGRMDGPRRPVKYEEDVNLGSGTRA
human RNMT-RAM complex, sequence (O43148 whole entry): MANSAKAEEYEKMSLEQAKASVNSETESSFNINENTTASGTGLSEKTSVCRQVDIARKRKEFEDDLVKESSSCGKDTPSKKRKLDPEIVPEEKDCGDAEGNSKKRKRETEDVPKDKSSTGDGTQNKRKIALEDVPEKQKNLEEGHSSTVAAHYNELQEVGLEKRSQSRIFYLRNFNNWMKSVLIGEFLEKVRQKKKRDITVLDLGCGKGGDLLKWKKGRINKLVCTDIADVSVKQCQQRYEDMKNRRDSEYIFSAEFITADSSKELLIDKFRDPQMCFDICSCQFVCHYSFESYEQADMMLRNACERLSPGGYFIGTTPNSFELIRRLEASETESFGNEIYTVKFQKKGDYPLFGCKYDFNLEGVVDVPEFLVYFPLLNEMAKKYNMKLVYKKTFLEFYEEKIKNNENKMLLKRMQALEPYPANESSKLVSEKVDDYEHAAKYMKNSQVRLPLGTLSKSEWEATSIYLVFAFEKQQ
human RNMT-RAM complex, sequence (Q9BTL3 whole entry partner): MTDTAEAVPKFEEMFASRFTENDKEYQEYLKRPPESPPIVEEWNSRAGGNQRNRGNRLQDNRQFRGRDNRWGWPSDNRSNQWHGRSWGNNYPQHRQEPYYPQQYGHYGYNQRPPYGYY

Compound	IC50 (human RNMT-RAM complex) [µM]	Emax (human RNMT-RAM complex; LUM % inhibition) [%]	hRNMT-RAM inhibition: Hill slope (human RNMT-RAM complex)	Emax (ZIKV NS5; LUM % inhibition) [%]	IC50 (ZIKV NS5; LUM % inhibition) [µM]	ZIKV NS5 inhibition: Hill slope (ZIKV NS5)	SAH counterscreen inhibition: Maximum response [1] [%]	SAH counterscreen inhibition: Hill slope [1]	IC50 [1] [µM]	IC50 (human RNMT-RAM complex; [5]) [µM]	Emax (human RNMT-RAM complex) [%]	IC50 (ZIKV NS5; [6]) [µM]	Inhibition of viral replication in vivo (SARS-CoV-2 [2])	EC50 (SARS-CoV-2 [3]; Huh-7.5 cells, read-out: Anti-SARS-CoV-2 activity EC50) [µM]	EC50 (SARS-CoV-2 [3]; Severe acute respiratory syndrome coronavirus 2, Huh7.5, read-out: Anti-SARS-CoV-2 activity EC50, Huh-7.5 cells) [µM]	Cytotoxicity (Huh-7.5 cells)	CC50 [4] [µM]
Nc1ncnc2c1ncn2C1OC(CC(N)CCC(N)C(=O)O)C(O)C1O (centres unmarked) [RU-0425548]	0.00596	102	0.881	109	0.21	0.774	8.34	7.74	> 62.5								
COc1ccc(-c2ocnc2C(=O)Nc2ccc3oc(=O)n(CC(=O)N4CCCCC4)c3c2)cc1 [RU-0833661, COC1=CC=C(C2=C(C(=O)NC3=CC=C4OC(=O)N(CC(=O)N5CCCCC5)C4=C3)N=CO2)C=C1]			5.03	66.6		1.01	20.6	0.36	> 125	> 125	36.6	73.7					
O=C(Cn1cccc(-c2nc(-c3ccccc3)no2)c1=O)Nc1ccc(F)cc1F [RU-0833868, Fc1c(NC(=O)CN2C=CC=C(c3nc(c4ccccc4)no3)C2=O)ccc(F)c1]			3.14	64.4		0.969	21.5	19.2	> 125	> 250	5.14	122					
Cc1ccc(NC(=O)Cn2nnc3ccccc3c2=O)cc1S(=O)(=O)N1CCCCC1 [RU-0833928, S(=O)(=O)(N1CCCCC1)c1c(C)ccc(NC(=O)CN2N=Nc3c(cccc3)C2=O)c1]			0.501	9.49	> 250	-7.54	21.6	-3.01	> 125	> 250	8.18						
Cc1nc(C)c(C(=O)NCc2ccc(CNC(=O)c3ccc(O)c(F)c3)cc2)nc1C [RU-0834080, CC1=NC(C)=C(C)N=C1C(=O)NCC1=CC=C(CNC(=O)C2=CC(F)=C(O)C=C2)C=C1]			1.28	18.4	> 250	1.81	16.2	-2.71	> 125	> 250	23.1						
CCn1nc(C)c(C(=O)NCCc2ccc(CNC(=O)c3ccc4[nH]ncc4c3)cc2)c1C [RU-0834081, CCN1N=C(C)C(C(=O)NCCC2=CC=C(CNC(=O)C3=CC4=C(C=C3)NN=C4)C=C2)=C1C]			0.243	15.9	> 250	4.21	11.2	6.42	> 125	> 250	15.2						
Cc1cc(C(=O)NCc2ccc(C(=O)NC(C)c3ccccc3C)nc2)ccc1O (centres unmarked) [RU-0834146, CC1=CC(C(=O)NCC2=CN=C(C(=O)NC(C)C3=C(C)C=CC=C3)C=C2)=CC=C1O]			86	11.2	> 250	10.6	16.1	-44.2	> 125	> 250	4.85						
Cc1nccc(C(=O)NCC2CCC3(CN(C(=O)c4cc(C)c5[nH]ncc5c4)C3)O2)c1C (centres unmarked) [RU-0834173, CC1=C2C(=CC(C(=O)N3CC4(C3)CCC(CNC(=O)C3=C(C)C(C)=NC=C3)O4)=C1)C=NN2]			1.99	10.3	> 250	20.4	12.6	-9.25	> 125	> 250	3.36						
Cc1cccc(C(=O)NCC2CCC3(CN(C(=O)c4cc(C)c5[nH]ncc5c4)C3)O2)c1F (centres unmarked) [RU-0834174, CC1=CC(C(=O)N2CC3(C2)CCC(CNC(=O)C2=CC=CC(C)=C2F)O3)=CC2=C1NN=C2]			0.374	12.9	> 250	1.95	16.2	-17	> 125	> 250	26.5						
Cc1ccc(C)c(C(=O)NCC2CCC3(CN(C(=O)c4cc(C)c(O)c(C)c4)C3)O2)c1C (centres unmarked) [RU-0834178, CC1=CC(C(=O)N2CC3(C2)CCC(CNC(=O)C2=C(C)C=CC(C)=C2C)O3)=CC(C)=C1O]			13.1	20.5	> 250	0.402	18.2	-6.31	> 125	> 250	3.1						
C[C@@H](NC(=O)c1ccc(CNC(=O)c2ccc3[nH]ncc3c2)cc1)c1cccc(O)c1 [RU-0834179, C[C@@H](NC(=O)C1=CC=C(CNC(=O)C2=CC=C3NN=CC3=C2)C=C1)C1=CC(O)=CC=C1]			0.0614	12.5	> 250	1.12	14.4	11.5	> 125	> 250	6.78						
Cc1cc(C)c(C(=O)NCc2ccc(CNC(=O)c3ccc(O)c(C)c3)cc2)cn1 [RU-0834181, CC1=CC(C(=O)NCC2=CC=C(CNC(=O)C3=CN=C(C)C=C3C)C=C2)=CC=C1O]			0.346	14.9	> 250	0.143	12.2	63.6	> 125	> 250	20.8						
Cc1cnc(C(C)NC(=O)c2ccc(CNC(=O)c3ccc(O)c(C)c3)cn2)nc1 (centres unmarked) [RU-0834184, CC1=CN=C(C(C)NC(=O)C2=NC=C(CNC(=O)C3=CC=C(O)C(C)=C3)C=C2)N=C1]			137	12.7	> 250	1.19	16.9	13.5	> 125	> 250	5.53						
Cc1cnc(C(=O)NCc2ccc(CNC(=O)c3ccc(O)c(C)c3)cc2)c(C)c1 [RU-0834201, CC1=CC(C)=C(C(=O)NCC2=CC=C(CNC(=O)C3=CC=C(O)C(C)=C3)C=C2)N=C1]			35.3	12.1	> 250	0.157	14.6	-59.4	> 125	> 250	6.56						
Cc1c(S(=O)(=O)N2CCc3[nH]ncc3C2)cc(C(=O)NCc2c(F)ccc3occc23)n1C [TDI-015051]													inhibited viral replication				
Cc1cc(S(=O)(=O)c2cc(C(=O)NCc3c(F)ccc4cnn(C5CC5)c34)n(C)c2C)cc2cn[nH]c12 [TDI-016037]														0.008	0.0086	no cytotoxicity was detected	≥ 3
